Here are results for three compounds from patent US9969732B2, “Tetrahydroisoquinoline estrogen receptor modulators and uses thereof” (Genentech, Inc., priority 2016, dated 2018).

The target in the assay is T1, ER-alpha (WT) (Homo sapiens, UniProt P03372).
T1 construct: endogenous in cells; host or cells: MCF7 breast cancer cells
T1 sequence (P03372 1-595): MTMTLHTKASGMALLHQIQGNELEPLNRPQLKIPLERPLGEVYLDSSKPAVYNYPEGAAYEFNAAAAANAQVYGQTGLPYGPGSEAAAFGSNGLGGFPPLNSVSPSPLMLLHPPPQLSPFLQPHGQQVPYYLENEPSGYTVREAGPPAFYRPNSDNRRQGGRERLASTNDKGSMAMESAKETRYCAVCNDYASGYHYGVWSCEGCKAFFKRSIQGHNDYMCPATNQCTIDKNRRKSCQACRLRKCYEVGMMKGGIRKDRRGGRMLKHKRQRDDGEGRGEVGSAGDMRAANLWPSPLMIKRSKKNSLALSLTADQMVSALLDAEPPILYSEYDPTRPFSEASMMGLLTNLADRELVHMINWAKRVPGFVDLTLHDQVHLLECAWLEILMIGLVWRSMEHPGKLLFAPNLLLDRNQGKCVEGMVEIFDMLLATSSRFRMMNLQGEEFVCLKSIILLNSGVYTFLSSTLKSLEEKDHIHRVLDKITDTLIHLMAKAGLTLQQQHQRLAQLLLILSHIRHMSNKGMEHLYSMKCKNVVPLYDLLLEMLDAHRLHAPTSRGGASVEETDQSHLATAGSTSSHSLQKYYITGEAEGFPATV
Nature of the assay: Breast Cancer Cell ERa High Content Fluorescence Imaging Degradation Assay (MCF7 HCS). It is filed as cell-based. The note with it: MCF7 breast cancer cells, 4 hours incubation; for EC50: inflexion point of curve.

In general, EC50 refers to the midpoint of the concentration-response curve. Read a high EC50 as a less potent agent. Regarding `CC(=O)c1ccc2c(c1)C[C@H](C)N(CC(F)(F)CO)[C@H]2c1ccc(OCCN2CC(CF)C2)cc1` [Example 176, 1-((1S,3S)-2-(2,2-Difluoro-3-hydroxypropyl)-1-(4-(2-(3-(fluoromethyl)azetidin-1-yl)ethoxy)phenyl)-3-methyl-1,2,3,4-tetrahydroisoquinolin-6-yl)ethanone], the EC50 is > 100 nM.
Same read-out and setting: under `C[C@H](O)c1ccc2c(c1)C[C@@H](C)N(CC(F)(F)CO)[C@@H]2c1ccc(OCCN2CC(CF)C2)cc1` [Example 178, 2,2-Difluoro-3-((1R,3R)-1-(4-(2-(3-(Fluoromethyl)azetidin-1-yl)ethoxy)phenyl)-6-((S)-1-hydroxyethyl)-3-methyl-3,4-dihydroisoquinolin-2(1H)-yl)propan-1-ol] stands > 100 nM.
As for `Oc1ccc2c(c1)CC[C@H](c1ccccc1)[C@@H]2c1ccc(OCCN2CCCC2)cc1` [lasofoxifene, (5R,6S)-6-phenyl-5-(4-(2-(pyrrolidin-1-yl)ethoxy)phenyl)-5,6,7,8-tetrahydronaphthalen-2-ol, reference compound], the “ERalpha (WT) MCF7 HCS (S inf)” value (plateau of the maximal effect, DMSO and Fulvestrant define 0% and 100% changes in ESR1) was −73.5%.
